Source: PubChem BioAssay AID1919007 (Molecular Pharmacology Branch, DTP, NCI, 2023)

Tested on: A498 complex spheroids with HUVEC/MSC, growth
Assay: Anticancer human tumor A498 cell line growth inhibition [AhR];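 also: seven day exposure starting three days after spheroid seeding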;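 as to viability, T/C: luminescence signal used as a surrogate for viable cells; luminescence viability scaled so 100% equals DMSO vehicle wells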
Conditions: for IC50: curve of first compound; for viability, T/C: stronger effect = lower value
Excerpt: Multicellular complex tumor spheroid response to aryl hydrocarbon receptor antagonists in combination with a variety of drugs and investigational agents in selected tumor cell lines
The current study was undertaken to assess response to aryl hydrocarbon receptor antagonists in combination with standard-of-care drugs and investigational agents in solid tumor complex spheroid models. Complex spheroids include a stromal component modeled by human endothelial cells (HUVEC) and fibroblasts modeled by human mesenchymal stem cells (MSCs). The concentration ranges selected for each drug and investigational agent were based upon clinically achievable concentrations if the clinical Cmax of the agent was known.
Compounds. The drugs and investigational agents: BAY 2416964 (NSC825713), GNF351 (NSC835774), CH-223191 (NSC835775), CPI-455 (NSC825282), aza-TdCyd (NSC777586), decitabine (NSC127716), belinostat (NSC758774), entinostat (NSC756642), pevonedistat (NSC761192), tazemetostat (NSC777109), talazoparib (NSC765396), olaparib (NSC753686), selinexor (NSC780203), nedisertib (M3814, NSC802822), bortezomib (NSC756655), venetoclax (NSC766270), doxorubicin (NSC123127), elimusertib (BAY189344, NSC800525), ceralasertib (AZD6738, NSC777638), TAK-243 (NSC785004), alisertib (NSC759677), etoposide (NSC141540), topotecan (NSC609699), eribulin (NSC707389), gemcitabine (NSC613327), carboplatin (NSC241240), cisplatin (NSC119875), and SN-38 (NSC673596) were obtained from the National Cancer Institute (NCI) Developmental Therapeutics Program Chemical Repository (32). The FDA-approved anticancer drug set is available from the Developmental Therapeutics Program at https://dtp.cancer.gov/organization/dscb/obtaining/available plates.htm. […] The stock solutions were prepared in dimethyl sulfoxide (DMSO, Sigma-Aldrich, St. Louis, MO, cat. D2650), except for the platinum compounds which were prepared in saline (Quality Biological, Gaithersburg, MD, cat. 114-055-101), at 800-fold the tested concentration and stored at -70 degrees C prior to their use. All drugs and investigational agents were tested over a range starting from a high concentration at or near the clinical Cmax and decreasing in half-log increments. If the clinical Cmax for an agent had not been determined, the highest concentration tested was 10 microM (Table 1).
Cell Culture. All cells were maintained in an incubator at 37 degrees C and 5% CO2 with 95% humidity. The PDC lines were cultured according to standard operating procedures established by the NCI PDMR (https://pdmr.cancer.gov). Briefly, all PDCs were thawed and cultured in Matrigel-coated flasks prepared with a working solution of 1X Ham's F-12 nutrient mix, without supplementation (Invitrogen, Waltham, MA, cat. 11765054), 100 U/mL penicillin-streptomycin (Invitrogen, cat. 15140122), and 2.5% Matrigel (Corning Inc., Corning, NY, cat. 354248) for the first three passages. All PDCs were cultured in complete DMEM/F-12 media containing advanced DMEM/F-12 (Invitrogen, cat. 12634028), 4.9% defined fetal bovine serum, heat inactivated (HyClone Laboratories Inc., Logan, UT, cat. SH30070.03HI), 389 ng/mL hydrocortisone (Sigma-Aldrich, cat. H4001), 9.7 ng/mL human EGF recombinant protein (Invitrogen, cat. PHG0313), 23.4 microg/mL adenine (Sigma-Aldrich, cat. A2786), 97.3 U/mL penicillin-streptomycin (Invitrogen, cat. 15140122), 1.9 mM L-glutamine (Invitrogen, cat. 25030081), and 9.7 microM Y-27632 dihydrochloride (Tocris Bioscience, Bristol, United Kingdom, cat. 1254). The PDCs were cultured in complete DMEM/F12 media without 10 microM Y-27632 dihydrochloride for at least two passages prior to the screen. The established cell lines NCI-H1341 and […] were cultured in DMEM/F-12, HEPES (Invitrogen, cat. 11330032), 5% defined fetal bovine serum (HyClone Laboratories Inc., cat. SH30070.03), ITS premix universal culture supplement [insulin (5 microg/mL), transferrin (5 microg/mL), and selenious acid (5 ng/mL)] […]

[1] = second compound 0.1 µM, first compound 0.0316 µM
[2] = second compound 0.1 µM, first compound 0.1 µM
[3] = second compound 0.316 µM, first compound 0.0316 µM
[4] = second compound 0.316 µM, first compound 0.1 µM
[5] = second compound 1 µM, first compound 0.0316 µM
[6] = second compound 1 µM, first compound 0.1 µM
[7] = second compound 3.16 µM, first compound 0.0316 µM
[8] = second compound 3.16 µM, first compound 0.1 µM
[9] = second compound 10 µM, first compound 0.0316 µM
[10] = second compound 10 µM, first compound 0.1 µM

COc1ccc([C@@H](O)c2cc(-c3ncnc4cc(N5CCOCC5)ccc34)c(F)cc2Cl)nn1 + Cc1cncc(-c2nc(NCCc3c[nH]c4ccccc34)c3ncn(C(C)C)c3n2)c1
IC50 (second compound 0.1 µM): 477 nM | IC50 (second compound 0.316 µM): 549 nM | IC50 (second compound 1 µM): 434 nM | IC50 (second compound 3.16 µM): < 31.6 nM | IC50 (second compound 10 µM): < 31.6 nM | viability, T/C [1]: 89.2% | viability, T/C [2]: 86.9% | viability, T/C (second compound 0.1 µM, first compound 0.316 µM): 59% | viability, T/C (second compound 0.1 µM, first compound 1 µM): 30.6% | viability, T/C (second compound 0.1 µM, first compound 3.16 µM): 19.1% | viability, T/C (second compound 0.1 µM, first compound 10 µM): 10.1% | viability, T/C [3]: 89.5% | viability, T/C [4]: 85.9% | viability, T/C (second compound 0.316 µM, first compound 0.316 µM): 67% | viability, T/C (second compound 0.316 µM, first compound 1 µM): 31.1% | viability, T/C (second compound 0.316 µM, first compound 3.16 µM): 17.7% | viability, T/C (second compound 0.316 µM, first compound 10 µM): 11.8% | viability, T/C [5]: 80.6% | viability, T/C [6]: 85.1% | viability, T/C (second compound 1 µM, first compound 0.316 µM): 57.5% | viability, T/C (second compound 1 µM, first compound 1 µM): 26.6% | viability, T/C (second compound 1 µM, first compound 3.16 µM): 17.5% | viability, T/C (second compound 1 µM, first compound 10 µM): 12.4% | viability, T/C [7]: 45.1% | viability, T/C [8]: 49.3% | viability, T/C (second compound 3.16 µM, first compound 0.316 µM): 39.3% | viability, T/C (second compound 3.16 µM, first compound 1 µM): 25% | viability, T/C (second compound 3.16 µM, first compound 3.16 µM): 15.4% | viability, T/C (second compound 3.16 µM, first compound 10 µM): 11.6% | viability, T/C [9]: 3.91% | viability, T/C [10]: 4.22% | viability, T/C (second compound 10 µM, first compound 0.316 µM): 4.26% | viability, T/C (second compound 10 µM, first compound 1 µM): 3.54% | viability, T/C (second compound 10 µM, first compound 3.16 µM): 3.86% | viability, T/C (second compound 10 µM, first compound 10 µM): 8.65%

Cn1ncnc1C1c2n[nH]c(=O)c3cc(F)cc(c23)NC1c1ccc(F)cc1 (stereo not given) + CC(CO)NC(=O)c1cc(-c2ccc(Cl)cc2)nn(-c2cnn(C)c2)c1=O
IC50 (second compound 0.1 µM): > 100 nM | IC50 (second compound 0.316 µM): > 100 nM | IC50 (second compound 1 µM): > 100 nM | IC50 (second compound 3.16 µM): > 100 nM | IC50 (second compound 10 µM): > 100 nM | viability, T/C (second compound 0.1 µM, first compound 0.000316 µM): 100% | viability, T/C (second compound 0.1 µM, first compound 0.001 µM): 102% | viability, T/C (second compound 0.1 µM, first compound 0.00316 µM): 106% | viability, T/C (second compound 0.1 µM, first compound 0.01 µM): 95.1% | viability, T/C [1]: 91.4% | viability, T/C [2]: 92.4% | viability, T/C (second compound 0.316 µM, first compound 0.000316 µM): 99.5% | viability, T/C (second compound 0.316 µM, first compound 0.001 µM): 103% | viability, T/C (second compound 0.316 µM, first compound 0.00316 µM): 101% | viability, T/C (second compound 0.316 µM, first compound 0.01 µM): 88.5% | viability, T/C [3]: 87.6% | viability, T/C [4]: 87.8% | viability, T/C (second compound 1 µM, first compound 0.000316 µM): 100% | viability, T/C (second compound 1 µM, first compound 0.001 µM): 95.7% | viability, T/C (second compound 1 µM, first compound 0.00316 µM): 103% | viability, T/C (second compound 1 µM, first compound 0.01 µM): 94.1% | viability, T/C [5]: 93.5% | viability, T/C [6]: 91.2% | viability, T/C (second compound 3.16 µM, first compound 0.000316 µM): 91% | viability, T/C (second compound 3.16 µM, first compound 0.001 µM): 94.1% | viability, T/C (second compound 3.16 µM, first compound 0.00316 µM): 92.1% | viability, T/C (second compound 3.16 µM, first compound 0.01 µM): 80.2% | viability, T/C [7]: 77.8% | viability, T/C [8]: 79.1% | viability, T/C (second compound 10 µM, first compound 0.000316 µM): 74.3% | viability, T/C (second compound 10 µM, first compound 0.001 µM): 71.7% | viability, T/C (second compound 10 µM, first compound 0.00316 µM): 75.9% | viability, T/C (second compound 10 µM, first compound 0.01 µM): 69% | viability, T/C [9]: 68.5% | viability, T/C [10]: 67.1%
